Experiments:
Type in all cases: functional
MDA-MB-468 = test: Cytotoxicity against human MDA-MB-468 cells by SRB assay
MDA-MB-435 = test: Cytotoxicity against human MDA-MB-435 cells by SRB assay; settings: for CC50: read-out: LC50 (the source's name)
SF-295 = test: Cytotoxicity against human SF295 cells by SRB assay
NCI-H522 = test: Cytotoxicity against human NCI-H522 cells by SRB assay
SR = test: Cytotoxicity against human SR cells by SRB assay
RPMI-8226 = test: Cytotoxicity against human RPMI8226 cells by SRB assay
K562 = test: Cytotoxicity against human K562 cells by SRB assay
HL-60(TB) = test: Cytotoxicity against human HL-60(TB) cells by SRB assay
CCRF-CEM = test: Cytotoxicity against human CCRF-CEM cells by SRB assay

SMILES | GI50 (MDA-MB-468) [nM] | TGI (MDA-MB-468) [nM] | GI50 (MDA-MB-435) [nM] | TGI (MDA-MB-435) [nM] | GI50 (SF-295) [nM] | GI50 (NCI-H522) [nM] | LC50 (NCI-H522) [nM] | TGI (NCI-H522) [nM] | GI50 (SR) [nM] | TGI (SR) [nM] | GI50 (RPMI-8226) [nM] | TGI (RPMI-8226) [nM] | GI50 (K562) [nM] | TGI (K562) [nM] | GI50 (HL-60(TB)) [nM] | TGI (HL-60(TB)) [nM] | GI50 (CCRF-CEM) [nM] | TGI (CCRF-CEM) [nM] | TGI (SF-295) [nM] | CC50 (MDA-MB-435) [nM]
Nc1c(C(=O)Nc2ccccc2)sc2nc3c(cc12)C(=O)CCC3 | 150 | 583 | 89 | 297 | 372 | 150 | 68000 | 402 | 520 | > 100000 | 520 | > 100000 | 520 | > 100000 | 520 | > 100000 | 520 | > 100000 |  | 
Cc1cc(C)c(NC(=O)c2sc3nc4c(cc3c2N)C(=O)CCC4)c(C)c1 | 596 | 3650 | 267 | 1160 | 399 | 360 |  | 2010 | 3600 | > 100000 | 3600 | > 100000 | 3600 | > 100000 | 3600 | > 100000 | 3600 | > 100000 |  | 
Cc1ccccc1NC(=O)c1sc2nc3c(cc2c1N)C(=O)CCC3 | 529 | 6210 | 331 | 1980 | 1330 | 895 |  | 3500 | 4300 | > 100000 | 4300 | > 100000 | 4300 | > 100000 | 4300 | > 100000 | 4300 | > 100000 |  | 
Cc1ccc(Cl)cc1NC(=O)c1sc2nc3c(cc2c1N)C(=O)CCC3 | 2740 | 8760 | 1100 | 5040 | 2330 | 2170 |  | 4950 | 3500 | > 100000 | 3500 | > 100000 | 3500 | > 100000 | 3500 | > 100000 | 3500 | > 100000 | 7440 | 
Nc1c(C(=O)Nc2cccc(Cl)c2)sc2nc3c(cc12)C(=O)CCC3 | 45 | 622 | 45 | 270 | 213 | 190 |  | 788 | 200 | > 100000 | 200 | > 100000 | 200 | > 100000 | 200 | > 100000 | 200 | > 100000 | 781 | 900
Nc1c(C(=O)Nc2ccccc2F)sc2nc3c(cc12)C(=O)CCC3 | 238 | 952 | 196 | 567 | 570 | 440 |  | 3310 | 1800 | > 100000 | 1800 | > 100000 | 1800 | > 100000 | 1800 | > 100000 | 1800 | > 100000 | 85700 | 8000
